Earlier results, collected in US20090017139A1, “Iodine therapy dosing for treating medical conditions” (priority 2007, published 2009).

Experiments:
[1] = 1.5 to more than 10 g/day for weeks at a time; cited from earlier work
[2] = male rats, 100 days; cited from earlier work
[3] = perchlorate 6 mg i.p., 2 hr predosing; cited from earlier work
school age children = settings: 11 mg/d, 2.5 years later; cited from earlier work

[I-].[K+] [potassium iodide]
side effects [1]: few side effects are reported

I [iodide, reference compound]
thyroid size [2]: Significant increases in thyroid size
reduction of thyroidal uptake by perchlorate [3]: more than 90%

[I-].[Na+] [sodium iodide]
incidence of goiter (school age children): 0.2%
